This is an account of results in patent publication US20240025862A1, “SUBSTITUTED N-PHENYLURACILS AND SALTS THEREOF, AND USE THEREOF AS HERBICIDAL ACTIVE SUBSTANCES” (Bayer Aktiengesellschaft, priority 2020, published 2024).

Holding throughout (type): in vivo
The subject of data set [1] is Echinochloa crus-galli (ECHCG). Description: Post-emergence herbicidal action, greenhouse pot test (also comparative test C). The following applies: for Post-emergence action at 1.25 g/ha against ECHCG in %: rated visually after about 3 weeks vs untreated controls, 100% = plants have died. Here is the method:
(§1) Seeds of monocotyledonous and dicotyledonous weeds and crop plants were placed in sandy loam in plastic or wood-fiber pots, covered with soil and cultivated in a greenhouse under controlled growth conditions. 2 to 3 weeks after sowing, the test plants were treated at the one-leaf stage. The compounds of the invention, formulated in the form of wettable powders (WP) or as emulsion concentrates (EC), were then sprayed onto the green parts of the plants as aqueous suspension or emulsion with addition of 0.5% additive at a water application rate of 600 l/ha (converted). After the test plants had been kept in the greenhouse under optimum growth conditions for about 3 weeks, the activity of the preparations was rated visually in comparison to untreated controls. For example, 100% activity=the plants have died, 0% activity=like control plants.
(§2) Tables A1 to A14 below show the effects of selected compounds of the general formula (I) according to Tables I.1 to I.33 on various harmful plants and at an application rate corresponding to 20 g/ha and less, which were obtained by the experimental method specified above. The appendices “a”, “b” and “c” give differentiation by different dosage with otherwise the same harmful plants tested.
(§3) C. Comparative Herbicidal Action and Crop Plant Compatibility of Two Inventive Compounds (I.7-1 and I.7-115) with a Compound of Similar Structure Known from the Literature (WO2002/098227, a-17 and EP1106607, 3-14) in Post-Emergence Treatment.
(§4) Tables C1-C4 below show the effects of two inventive compounds (I.7-1 and I.7-115) together with a compound of similar structure known from the literature (a-17 in WO2002/098227, and 3-14 in EP1106607) in different crop plants at an application rate corresponding to 5 g/ha or less, which have been obtained by the aforementioned experimental procedure.

For data set [2], the system named is Matricaria inodora (MATIN). The data set is described as above. The method, then:
as §1, §2, §3, §4

The subject of the next data set is Setaria viridis (SETVI). The description is as above. The following applies: for Post-emergence action against SETVI: 20 g/ha. Here is the method: as §1, §2, §3, §4
In another data set the test system is Oryza sativa (ORYSA). Description: Post-emergence crop plant compatibility, greenhouse pot test (also comparative test C). As to conditions: for Post-emergence action against ORYSA (crop plant compatibility): vs untreated controls. Here is the method:
as §1
(§5) The observed effects on selected crop plants are reported here in comparison to the untreated controls (values in %). The appendices “a”, “b” and “c” give differentiation by different dosage with otherwise the same crop plants tested.
as §3

Data set [3] concerns Alopecurus myosuroides (ALOMY). Description: Post-emergence herbicidal action, greenhouse pot test (also comparative test C). The following applies: for ALOMY (efficacy in %): comparative test C, application rate 5 g/ha; for Post-emergence action at 20 g/ha against ALOMY in %: rated visually after about 3 weeks vs untreated controls, 100% = plants have died. The method, then: as §1, §2, §3, §4

The subject of data set [4] is Abutilon theophrasti (ABUTH). Description: Post-emergence herbicidal action, greenhouse pot test. As to conditions: rated visually after about 3 weeks vs untreated controls, 100% = plants have died. Here is the method: as §1, §2
For data set [5], the system named is Amaranthus retroflexus (AMARE). The description is as above. The following applies: rated visually after about 3 weeks vs untreated controls, 100% = plants have died. Here is the method:
as §1, §2

Data set [6] relates to Pharbitis purpurea (PHBPU). Described as above. The method, then:
as §1, §2

Data set [7] deals with Polygonum convolvulus (POLCO). Described as above. Here is the method: as §1, §2
Another data set concerns Veronica persica (VERPE). The description is as above. The method, then:
as §1, §2

A further data set relates to Viola tricolor (VIOTR). The data set is described as above. Here is the method: as §1, §2
Data set [8] relates to Triticum aestivum (TRZAS). As to the kind of experiment: Post-emergence crop plant compatibility, greenhouse pot test. As to conditions: vs untreated controls. Here is the method:
as §1, §5

The mark [9] stands for this setting: comparative test C, application rate 1.25 g/ha.

`CCCCOC(=O)COc1ccccc1Oc1cc(-n2c(=O)cc(C(F)(F)F)n(C)c2=O)c(F)cc1Cl` [a-17, reference compound]: in [1] (setting [9]), the “ECHCG (efficacy in %)” value was found to be 60%. Further, the “MATIN (efficacy in %)” value in data set [2] (setting [9]) turned out to be 30%. Besides, the “SETVI (efficacy in %)” value in the data set on Setaria viridis (SETVI) (setting [9]) came to 80%. Besides, the “ORYSA (efficacy in %)” value in the data set with Oryza sativa (ORYSA) (comparative test C, application rate 1.25 g/ha, crop plant compatibility) worked out at 20%.

Regarding `COCCOC(=O)COc1ccccc1Oc1cc(-n2c(=O)cc(C(F)(F)F)n(C)c2=O)c(F)cc1Cl` [drawing 110], in data set [3], the “ALOMY (efficacy in %)” value is 80%.

Take `Cn1c(C(F)(F)F)cc(=O)n(-c2cc(Oc3c(F)cccc3OCC(=O)OCC#N)c(Cl)cc2F)c1=O` [I.19-176]: in data set [4], the “Post-emergence action at 1.25 g/ha against ABUTH in %” value was determined as 100%. For the same molecule, the “Post-emergence action at 5 g/ha against ABUTH in %” value in [4] is reported as 100%. Moreover, in data set [4], the “Post-emergence action at 20 g/ha against ABUTH in %” value was 100%. In data set [5], the “Post-emergence action at 1.25 g/ha against AMARE in %” value was found to be 100%. In data set [5], the “Post-emergence action at 5 g/ha against AMARE in %” value stood at 100%. Further, the “Post-emergence action at 20 g/ha against AMARE in %” value in [5] was 100%. The “Post-emergence action against PHBPU in %” value in [6] (dosage 1.25 g/ha), in data set [6] (dosage 5 g/ha) and in data set [6] (dosage 20 g/ha) was 100% throughout. For the same molecule, the “Post-emergence action against POLCO in %” value in [7] (dosage 1.25 g/ha), in [7] (dosage 5 g/ha) and in [7] (dosage 20 g/ha) was 100% in each case. The “Post-emergence action against VERPE” value with Veronica persica (VERPE) (1.25 g/ha), in the data set with Veronica persica (VERPE) (5 g/ha) and with Veronica persica (VERPE) (20 g/ha) was 100% each time. In addition, the entries for the “Post-emergence action against VIOTR” value with Viola tricolor (VIOTR) (1.25 g/ha), with Viola tricolor (VIOTR) (5 g/ha) and in the data set with Viola tricolor (VIOTR) (20 g/ha) were 80%, 100% and 100%, respectively. In addition, the “Post-emergence action at 20 g/ha against ALOMY in %” value in data set [3] amounted to 80%. Also, the “Post-emergence action against ECHCG in %” value in data set [1] (dosage 5 g/ha) and in data set [1] (dosage 20 g/ha) was 100% in each case. The “Post-emergence action against MATIN in %” value in data set [2] (dosage 5 g/ha) and in data set [2] (dosage 20 g/ha) was 100% in each case. The “Post-emergence action against SETVI” value with Setaria viridis (SETVI) is recorded as 100%. The “Post-emergence action against SETVI in %” value is 90% in the data set on Setaria viridis (SETVI) (dosage 1.25 g/ha) and 100% in the data set on Setaria viridis (SETVI) (dosage 5 g/ha). In [8] (1.25 g/ha), the “Post-emergence action against TRZAS (crop plant compatibility)” value (from here on “Post-emergence action against TRZAS”) came out at 20%. Further, the “Post-emergence action against ORYSA (crop plant compatibility)” value in the data set on Oryza sativa (ORYSA) (1.25 g/ha) was 0%.

Regarding `Cn1c(C(F)(F)F)cc(=O)n(-c2cc(Oc3ccccc3OCC(=O)OC3COC3)c(Cl)cc2F)c1=O` [drawing 111], the “ALOMY (efficacy in %)” value in [3] is listed as 100%.

As to `Cn1c(C(F)(F)F)cc(=O)n(-c2cc(Oc3cc(F)ccc3OCC(=O)OCc3ccccn3)c(Cl)cc2F)c1=O` [I.23-276], in data set [4], the “Post-emergence action at 1.25 g/ha against ABUTH in %” value is 90%. In addition, the “Post-emergence action at 5 g/ha against ABUTH in %” value in [4] is 100%. The “Post-emergence action at 20 g/ha against ABUTH in %” value in data set [4] stood at 100%. In data set [5], the “Post-emergence action at 1.25 g/ha against AMARE in %” value is listed as 90%. The “Post-emergence action at 5 g/ha against AMARE in %” value in data set [5] was 100%. The “Post-emergence action at 20 g/ha against AMARE in %” value in [5] was found to be 100%. The “Post-emergence action against PHBPU in %” value came to 90% in [6] (dosage 1.25 g/ha), 100% in [6] (dosage 5 g/ha) and 100% in data set [6] (dosage 20 g/ha). The “Post-emergence action against POLCO in %” value in data set [7] (dosage 20 g/ha) was 100%. The “Post-emergence action against VERPE” value with Veronica persica (VERPE) (1.25 g/ha) turned out to be 80%; in the data set with Veronica persica (VERPE) (5 g/ha) it was 100%; with Veronica persica (VERPE) (20 g/ha), 100%. For the same molecule, the “Post-emergence action against VIOTR” value came to 80% with Viola tricolor (VIOTR) (1.25 g/ha), 100% with Viola tricolor (VIOTR) (5 g/ha) and 100% in the data set with Viola tricolor (VIOTR) (20 g/ha). Moreover, the “Post-emergence action at 20 g/ha against ALOMY in %” value in data set [3] is listed as 100%. The “Post-emergence action at 1.25 g/ha against ECHCG in %” value in [1] is 100%. Further, the “Post-emergence action against ECHCG in %” value in data set [1] (dosage 5 g/ha) and in data set [1] (dosage 20 g/ha) was 100% throughout. The “Post-emergence action against MATIN in %” value in data set [2] (dosage 20 g/ha) is 90%. The “Post-emergence action against SETVI” value in the data set with Setaria viridis (SETVI) was found to be 100%. Further, the “Post-emergence action against SETVI in %” value in the data set with Setaria viridis (SETVI) (dosage 1.25 g/ha) and in the data set on Setaria viridis (SETVI) (dosage 5 g/ha) was 100% throughout. Further, the “Post-emergence action against TRZAS” value in data set [8] (1.25 g/ha) and in data set [8] (5 g/ha) was 20% throughout. Further, the “Post-emergence action against ORYSA (crop plant compatibility)” value in the data set with Oryza sativa (ORYSA) (1.25 g/ha) came to 0%; with Oryza sativa (ORYSA) (5 g/ha), 10%. Besides, the “Post-emergence action against ORYSA in %” value in the data set with Oryza sativa (ORYSA) (20 g/ha, crop plant compatibility) amounted to 10%.

Take `COCCOC(=O)COc1cccc(F)c1Oc1cc(-n2c(=O)cc(C(F)(F)F)n(C)c2=O)c(F)cc1Cl` [I.19-1]: the “Post-emergence action at 1.25 g/ha against ABUTH in %” value in data set [4] is 100%. In addition, the “Post-emergence action at 5 g/ha against ABUTH in %” value in [4] was 100%. For the same molecule, the “Post-emergence action at 20 g/ha against ABUTH in %” value in [4] was 100%. The “Post-emergence action at 1.25 g/ha against AMARE in %” value in data set [5] amounted to 100%. Besides, in data set [5], the “Post-emergence action at 5 g/ha against AMARE in %” value worked out at 100%. For the same molecule, the “Post-emergence action at 20 g/ha against AMARE in %” value in [5] is on record as 100%. In addition, the “Post-emergence action against PHBPU in %” value in data set [6] (dosage 1.25 g/ha), in [6] (dosage 5 g/ha) and in [6] (dosage 20 g/ha) was 100% throughout. Moreover, the “Post-emergence action against POLCO in %” value in data set [7] (dosage 5 g/ha) and in data set [7] (dosage 20 g/ha) was 100% in each case. Moreover, the “Post-emergence action against VERPE” value in the data set on Veronica persica (VERPE) (1.25 g/ha), in the data set on Veronica persica (VERPE) (5 g/ha) and in the data set on Veronica persica (VERPE) (20 g/ha) was 100% throughout. Moreover, the “Post-emergence action against VIOTR” value in the data set with Viola tricolor (VIOTR) (1.25 g/ha), in the data set on Viola tricolor (VIOTR) (5 g/ha) and with Viola tricolor (VIOTR) (20 g/ha) was 100% each time. Besides, the “Post-emergence action at 20 g/ha against ALOMY in %” value in data set [3] is on record as 100%. Besides, in [1], the “Post-emergence action at 1.25 g/ha against ECHCG in %” value amounted to 100%. Moreover, the “Post-emergence action against ECHCG in %” value in [1] (dosage 5 g/ha) and in [1] (dosage 20 g/ha) was 100% each time. For the same molecule, the “Post-emergence action against MATIN in %” value in data set [2] (dosage 5 g/ha) worked out at 90%; in data set [2] (dosage 20 g/ha), 100%. For the same molecule, the “Post-emergence action against SETVI” value with Setaria viridis (SETVI) is listed as 100%. For the same molecule, the “Post-emergence action against SETVI in %” value in the data set on Setaria viridis (SETVI) (dosage 1.25 g/ha) and in the data set on Setaria viridis (SETVI) (dosage 5 g/ha) was 100% throughout. The “Post-emergence action against TRZAS” value in [8] (1.25 g/ha) was found to be 20%.

For `Cn1c(C(F)(F)F)cc(=O)n(-c2cc(Oc3ccccc3OCC(=O)OCC3CCCO3)c(Cl)cc2F)c1=O` (racemic) [Example 1.7-71], the “Post-emergence action against MATIN in %” value in [2] (dosage 5 g/ha) stood at 100%.

On to `CCCCOC(=O)COc1ccccc1Oc1cc(-n2c(=O)cc(C(F)(F)F)n(C)c2=O)c(F)cc1Cl` [drawing 112], for which the “ALOMY (efficacy in %)” value in data set [3] came to 30%.
